Source: US12630785B2, “Liquid fabric care compositions comprising capsules” (The Procter & Gamble Company, priority 2020, dated 2026)

Assay: Capsule perfume leakage in liquid fabric enhancer (LFE), headspace SPME GC/MS
Format: physicochemical
Details: LFE Composition 1
Experimental: The testing of capsule leakage in liquid compositions (e.g., liquid fabric enhancer/“LFE” compositions and/or heavy-duty liquid/“HDL” detergents) is performed as follows. […] The 1 gram aliquot in the 7 ml vial is then mixed on a stirring plate for 24 h at 500 rpm, thereby ensuring that the capsules are broken by the grinding action of the stir bar against the bottom of the 7 ml vial. Optical microscopy can be used to verify that no more intact capsules remain. In case such capsules are found, the step is to repeated for an additional 24 h, or until all or almost all capsules are broken. Then, the formulation containing broken capsules is introduced into GC vials in a similar manner as for step (a). This yields total oil samples. […] It is to be noted that the capsule sample and the total oil sample are not analyzed on the same day, as there is a need to prepare the total oil sample after the capsule sample has been removed from storage. […] The perfume oil composition formulated herein is representative of the perfume oil composition that is present in the slurry. Then the free oil formulation is introduced into GC vials in a similar manner as for step (a). This yields reference samples, which must be used when analyzing both the capsule sample and the total oil sample. […] Two headspace vials are prepared for each sample. The sealed headspace vials are then allowed to equilibrate. Samples reach equilibrium after 3 hours at room temperature, but can be left to sit longer without detriment or change to the results, up until 24 hours after sealing the headspace vial. After equilibrating, the samples are analyzed by GC/MS. […] The perfume composition is analyzed by fast GC/MS in full scan mode. Ion extraction of the specific mass for each component is obtained. The leakage is calculated as follows, separately for the capsule sample and total oil sample, where “Area” denotes the area under the chromatogram peak corresponding to the PRM of interest: Once calculated for all PRMs for both the total oil sample and the capsule sample, the corrected PRM leakage can be calculated using the following formula: Once the corrected PRM leakage has been calculated for all PRMs, the Average leakage can be found by taking the arithmetic mean of each corrected PRM leakage. […] The resulting products are stored for one week at 35° C. At the end of the storage period, samples of each product composition are analyzed for perfume leakage out of the capsule using headspace analysis. The data is reported as a percentage, determined by comparing the amount of the individual perfume raw materials found in the headspace to the amount originally provided to the capsules.

[1] = PRM of Perfume 4 out of Comparative Example 9-1 capsules (per EP3078415A)
[2] = PRM of Perfume 4 out of Comparative Example 9-2 capsules (per EP3078415A, additional TEOS)
[3] = PRM of Perfume 4 out of Example 9-1 capsules (Sample E)
[4] = PRM of Perfume 3 out of Capsule Sample D
[5] = PRM of Perfume 2 out of Capsule Sample C

For CCCCCCOC(=O)c1ccccc1O [Hexyl Salicylate], the “Leakage (as %) after 1 week at 35° C.” value [1] was 34%, the “Leakage (as %) after 1 week at 35° C.” value [2] was 28% and the “Leakage (as %) after 1 week at 35° C.” value [3] was 3%.

With CCCCCC/C(C=O)=C\c1ccccc1 [Hexylcinnamyl aldehyde] the “Leakage (as %) after 1 week at 35° C.” value [1] was 22%, the “Leakage (as %) after 1 week at 35° C.” value [2] was 36% and the “Leakage (as %) after 1 week at 35° C.” value [3] was 7%.

In the case of CC1=CC(C)C(C=O)CC1 (stereo not drawn) [Ligustral-1], the “Leakage (as %) after 1 week at 35° C.” value [4] was 8%.

In the case of CC(C=O)Cc1ccc(C(C)(C)C)cc1 (stereo not drawn) [Lilial], the “Leakage (as %) after 1 week at 35° C.” value [1] was 46%, the “Leakage (as %) after 1 week at 35° C.” value [2] was 61% and the “Leakage (as %) after 1 week at 35° C.” value [3] was 30%.

For CCCCCCCCCC(C)C=O (stereo not drawn) [Methyl nonyl acetaldehyde], the “Leakage (as %) after 1 week at 35° C.” value [4] was 4%.

With CC(=O)OC(C)c1ccccc1 (stereo not drawn) [Methyl phenyl carbinyl acetate] the “Leakage (as %) after 1 week at 35° C.” value [4] was 7%.

With CC(C)=CC1CC(C)CCO1 (stereo not drawn) [Rose Oxide] the “Leakage (as %) after 1 week at 35° C.” value [4] was 8%.

For CCC=C(C)C(O)CCCCC (stereo not drawn) [Undecavertol], the “Leakage (as %) after 1 week at 35° C.” value [4] was 11%.

For COC(=O)OC1CC/C=C\CCC1 (stereo not drawn) [[(4Z)-1-cyclooct-4-enyl] methyl carbonate], the “Leakage (as %) after 1 week at 35° C.” value [5] was 5%.

For CC1=CCC(C(C)(C)O)CC1 (stereo not drawn) [alpha-Terpineol], the “Leakage (as %) after 1 week at 35° C.” value [4] was 10%.

For CC(=O)/C=C/C1=C(C)CCCC1(C)C [beta ionone], the “Leakage (as %) after 1 week at 35° C.” value [4] was 5%.

With CCOC(=O)C1CCC(C(=O)OCC)CC1 (stereo not drawn) [diethyl 1,4-cyclohexane dicarboxylate] the “Leakage (as %) after 1 week at 35° C.” value [5] was 3%.
